Test results: publication PMC11087982, “In vitro and in vivo activities of a trithiolato-diRuthenium complex conjugated with sulfadoxine against the apicomplexan parasite Toxoplasma gondii” (International Journal for Parasitology: Drugs and Drug …, 2024)
Read-outs that look alike come from different tables or passages of the source.

What was measured:
[1] = system: T. gondii β-gal tachyzoites; details: 2021, cited from earlier work
[2] = system: T. gondii β-gal tachyzoites; experiment: T. gondii β-Gal tachyzoite proliferation in HFF monolayers (β-galactosidase fluorometric assay); format: cell-based, Toxoplasma gondii
Description: Effects of drugs on the proliferative capacity of T. gondii tachyzoites were investigated using a transgenic T. gondii RH strain constitutively expressing β-Galactosidase (T. gondii β-Gal ([Dc et al., 1997]);). Assays were carried out in 96 well plates in the presence or absence of the different compounds. For the quantification of β-Galactosidase activity, a fluorometric assay was applied as previously described ([Desiatkina et al., 2021]; [Păunescu et al., 2021]).

[3] = HFF host cell cytotoxicity, Alamar blue viability assay; format: cell-based, human; details: human, uninfected HFF cells (confluent monolayer), read-out: viability (% of control ± SD)
Description: (§1) To determine cytotoxicity of compounds on host cells, HFF were grown to confluency in 96 well plates and were treated with different concentrations of the drugs solubilized in medium during 72 h at 37 °C/5% CO2, or were treated with the corresponding concentration of DMSO only ([Desiatkina et al., 2020]; [Holzer et al., 2023]; [Păunescu et al., 2021]). The Alamar blue viability assay was used as previously described ([Desiatkina et al., 2020], [2021], [2022a], [2022b]; [Holzer et al., 2023]; [Păunescu et al., 2021]). In short, resazurin was added to each well at 0.01 mg/ml, and subsequently fluorescence of the produced resorufin was measured at excitation wavelength 544/20 nm and emission wavelength 590/20 nm using a Hidex Sense microplate reader (Hidex, Turku, Finland).

T. gondii-infected HFF = experiment: TMRE uptake assay (mitochondrial membrane potential), T. gondii-infected HFF; format: cell-based, Toxoplasma gondii Me49 in human HFF; details: 0.5 μM, 3.5 h
Description: (§2) 5 × 10^5 HFF were seeded into T25 culture flasks in DMEM complete medium and maintained in culture for 72 h to reach ⁓80% confluency. HFF monolayers were left either non-infected or were infected with 2 × 10^5 T. gondii Me49 tachyzoites. After another 48 h, the medium was removed from infected and non-infected T25 flasks and was replaced either by medium containing 0.5 μM RU-SDX, or in the case of non-treated controls, medium containing 0.05% DMSO. As positive controls, the two mitochondrial uncouplers FCCP and CCCP were applied at a concentration of 80 and 50 μM, respectively. PYR was applied at 0.5 μM as a control drug not affecting the MMP, and RU-adenine, used as a conjugate shown earlier to impact on the mitochondrial ultrastructure in T. gondii ([Anghel et al., 2021]; [Desiatkina et al., 2022b]), was also tested at 0.5 μM ([Anghel et al., 2021]; [Desiatkina et al., 2022b]). […] Fluorescence was measured using a Hidex Sense microplate reader instrument ([…]) with the excitation wavelength 544/20 nm and emitted light collected at 590/20 nm. Value from wells belonging to the same experimental condition were summed and the mean TMRE uptake in each condition was calculated from three biological replicates.

Non-infected HFF = experiment: TMRE uptake assay (mitochondrial membrane potential), non-infected HFF; format: cell-based, human; details: 0.5 μM, 3.5 h
Description: as §2

HFF = HFF host cell cytotoxicity, Alamar blue viability assay; format: cell-based, human; details: 72 h, uninfected HFF
Description: as §1

Structure (SMILES): COc1ncnc(NS(=O)(=O)c2ccc(N)cc2)c1OC [SDX, Sulfadoxine]
- proliferation (% of control ± SD) ([1]; 1 μM, ref Desiatkina et al.): ^b83 ± 2%
- proliferation (% of control ± SD) ([1]; 1.1 μM, ref Desiatkina et al.): ^b^, ^∗111 ± 3%
- activity at 1.25 µM ([2]; Toxoplasma gondii, 1.25 μM, read-out: proliferation (% of control ± SD)): 127%
- activity at 2.5 µM ([2]; Toxoplasma gondii, 2.5 μM, read-out: proliferation (% of control ± SD)): 113%
- activity at 5 µM ([2]; Toxoplasma gondii, 5 μM, read-out: proliferation (% of control ± SD)): 112%
- viability at 72 h, 2.5 µM ([3]; 2.5 μM): 118 ± 6%
- viability at 72 h, 5 µM ([3]; 5 μM): 106 ± 9%
- viability at 72 h, 10 µM ([3]; 10 μM): 93 ± 5%

Structure (SMILES): CCc1nc(N)nc(N)c1-c1ccc(Cl)cc1 [PYR, Pyrimethamine, reference compound]
- TMRE fluorescence intensity / TMRE uptake (percentage of non-treated control = 100%) (T. gondii-infected HFF): 106%
- TMRE fluorescence intensity / TMRE uptake (percentage of non-treated control = 100%) (Non-infected HFF): 99%

Structure (SMILES): CC(C)(C)c1ccc(C[S-])cc1.CC(C)(C)c1ccc(C[S-])cc1.Cc1ccc(C(C)C)cc1.Cc1ccc(C(C)C)cc1.O=C(O)Cc1ccc([S-])cc1.[Cl-].[Ru+2].[Ru+2] [RU]
- proliferation (% of control ± SD) ([1]; 1 μM, ref Păunescu et al.): ^a110 ± 2%
- proliferation (% of control ± SD) ([1]; 1.1 μM, ref Păunescu et al.): ^a114 ± 2%
- proliferation (% of control ± SD) ([2]; 1.25 μM): ^∗64 ± 10%
- proliferation (% of control ± SD) ([2]; 2.5 μM): ^∗∗∗12 ± 2%
- proliferation (% of control ± SD) ([2]; 5 μM): ^∗∗∗0 ± 0%
- viability (% of control ± SD) (HFF; 2.5 μM): 100 ± 10%
- viability (% of control ± SD) (HFF; 5 μM): 70 ± 10%
- viability (% of control ± SD) (HFF; 10 μM): 0 ± 0%
